# Results taken from patent US10172787B2, “Method of regulating a condition of mammalian keratinous tissue” (priority 2015, dated 2019).
# System: interleukin-18 (IL-18)
# Experiment: Skin sensitization potential: IL-18 production in HEK
# Type: cell-based, human
# Conditions: 16 hours
# Description: It is possible for a material to not be cytotoxic, and yet be unsafe due to provoking an allergic reaction upon skin contact. Typically, initial exposure to an allergen sensitizes the immune system, and following exposures cause an allergic response. […] Thus, IL-18 production in HEK was evaluated to determine sensitization potential.
# Normal human adult epidermal keratinocytes (HEK) were cultured as described above for the cytoxicity evaluation. […] The cell lysates were collected, and IL-18 was quantified using Human IL-18 ELISA Kit (Catalog #7620, produced by MBL International Co., Woburn, Mass., USA). […] Fold changes of IL-18 levels between test articles and respective vehicle controls were calculated and compared to pPD (positive control). […]
smiles,measurement,value
"Nc1ccc(N)cc1 [benchmark sensitizer, para-phenylenediamine]",IL18 Maximum fold (vs vehicle control),7.8 fold)
